Patent publication US20130053374A1, “OPHTHALMIC COMPOSITION” (priority 2010, published 2013)
≈ marks a conversion by molar mass, not a printed value. Like-named read-outs stand apart in the source and are kept apart here.

What was measured:
[1] = physchem; format: physicochemical; settings: pH 7, aqueous with cosolvent or surfactant or cyclodextrin, thermodynamic from solid
Experimental: After allowing the suspensions to equilibrate at room temperature for additional 30 minutes, the suspension solutions were then sonicated for 10 min and finally filtered through 0.45 μm syringe filters.

[2] = Solubility of CAI with Bis-MPA hyperbranched polyester or PEG combination at pH 7.4 (Experimental Example 9); format: physicochemical; settings: pH 7.4, 0.5% Timolol, 5% 3rd BMPA-HP
Experimental: Secondly, the effective volume of 5% (w/v) BMPA-HP solution was diluted appropriately to make up the exact concentrations described in Table 18. […] After stirring, the solution was sonicated for 5 minutes. […] The filtrates were analyzed for CAI using UPLC with the same condition as EXPERIMENTAL EXAMPLE 1.

[3] = cited from earlier work; for pKa (amine group): protonated secondary amine (Dorzolamide), amine (Brinzolamide); for pKa (sulfonamide group): sulfonamide (Dorzolamide), primary sulfonamide (Brinzolamide)
[4] = pH 7.4, 0.5% (w/v) Timolol, 5% (w/v) HP (Boltorn W3000)
Experimental: The emulsion was prepared by slowing dispersing water to the weighed amount of waxed Boltorn® W3000 to make 5% (w/v) emulsion with continuous stirring and heating at 60-70° C. for at least 30 minutes, followed by continuous vigorous stirring for an additional 15 hours, to obtain a homogeneous emulsion mixture in a flask.
10 mM phosphate buffer was added to the appropriately weighed mass of solid active ingredients and stirred thoroughly for 15 minutes. Secondly, the effective volume of 5% (w/v) HP emulsion solution was diluted appropriately to make up the exact concentrations described in Table 13. The sample test emulsion solutions were then stirred for 10 minutes at room temperature (with heating up to 60° C. for 5 minutes). After stirring, the emulsion solution was sonicated for 5 minutes. After allowing the complete emulsion of all the active and non-active ingredients, the pH was adjusted to 7.4 by using 1 M NaOH, and additional buffer was added to make up the exact compositions in Table 13. With the adjustment of the pH, the emulsion solutions were further equilibrated by stirring for an additional 15 hours or more at room temperature. The pH of all the sample emulsion solutions was measured again to confirm the final desired pH of 7.4.

[5] = pH-solubility of Dorzolamide with hyperbranched polymer and PEG (Experimental Example 1); format: physicochemical; settings: 0.1% (w/v) phosphate buffer, FIG. 1
Experimental: Similar suspensions were also prepared in aqueous solution containing different concentrations of different HP and PEG with a molecular weight of 8000. A combination of Polysorbate 80 and PEG 8000 was also attempted. The pH was measured accurately with micro-pH electrode (Thermo Scientific). The desired pH was adjusted using either 1 M NaOH or 1 M HCl. […] After allowing the suspensions to equilibrate at room temperature for an additional 30 minutes, the suspension solutions were then sonicated for 10 minutes and finally filtered through 0.45 μm syringe filters.

[6] = Aqueous solubility of Dorzolamide in the presence of Timolol with HP, PEG, Polysorbate 80 (Experimental Example 3); format: physicochemical
Experimental: The final pH was adjusted to 5.65 with 1 M NaOH after addition of HP (sample 1). The combination of different molecular weight PEG and Polysorbate 80 at pH 5.65 as per Table 3 were also attempted. […] After allowing the suspensions to equilibrate at room temperature for an additional 30 minutes, the suspension solutions were then sonicated for 10 minutes and finally filtered through 0.45 μm syringe filters.

[7] = tested on: intact rabbit corneas; settings: for enhancement of corneal permeation rate: male, New Zealand, rabbit, 180 min, pH 5.65
Experimental: The samples were filtered by 0.45 μm filter syringe. The initial concentration of both the samples was determined by UPLC analysis.
Three male rabbits (New Zealand) weighing 3-4 pounds. The age of the rabbits was 11-12 weeks. Immediately after sacrifice by an overdose of carbon dioxide gas, the eyes were enucleated, saline washed, and the corneas were separated for the use in permeation experiments. Each cornea was rinsed with freshly prepared receptor solution (Table 4) to remove excess stain. The six intact and fresh corneas were fixed between clamped donor and receptor compartments of an all glass side-by-side diffusion cell in such a way that its epithelial surface faces the donor compartment.
The corneal area available for permeation was 0.211 cm^2. The receptor compartment was filled with freshly prepared receptor solution at pH 7.2, as per the composition described in Table 4. An aliquot (5 mL) of sample #1 was placed on the two intact corneas, and the opening of the donor cells was sealed with a glass cover slip. After 10 minutes of applying sample #1, an aliquot (5 mL) of sample #2 was applied on the next two intact corneas. Again, after 10 minutes, sample #3 aliquot (5 mL) was applied on the remaining two intact corneas. The receptor fluid (5 mL in each receptor cell) was kept at constant temperature of 34° C. using constant stirring through water jacket in all the six cases. At predetermined time intervals of 10, 20, 40, 60, 80, 100, 120, 140, 160, and 180 minutes, 200 μL samples were withdrawn from the receptor solution. Thereafter, the same amount of the phosphate buffer solution was added to the receptor cell. The drug concentrations were assayed by UPLC.
At the end of the experiment, each cornea (free from adhering sclera) was weighed after soaking in de-ionized water. The wet cornea was dried overnight in oven, and reweighed. From the difference of weights, corneal hydration was calculated. […] The parameters that were calculated are as follows:

[8] = tested on: intact rabbit corneas
Excerpt: These suspension solutions were used directly as sample donor solutions for the cornea permeation study. In order to determine the solubility, the suspensions were filtered through 0.45 μm syringe filters.
Three male rabbits (New Zealand) weighing 2 to 3 kg. Immediately after sacrifice by an overdose of inhaler isoflurane, the eyes were enucleated, and the corneas were separated for use in the permeation experiments.

[9] = tested on: intact rabbit corneas; remark: listed apart in the source
Experimental: 10 mM phosphate buffer was added to the appropriately weighed mass of the solid active ingredients, and stirred thoroughly for 15 minutes. […] The three test solutions were then stirred for 10 minutes at room temperature (with heating up to 60° C. for 5 minutes). After stirring, the solution was sonicated for 5 minutes. After allowing the complete dilution of all the active and non-active ingredients, the pH was adjusted to either 7.4 or 5.65 by using 1 M NaOH or 1 M HCl, and additional buffer was added to make up the exact compositions in the Table 15. With the adjustment of pH, the appearance was noted as per Table 14, and the formulations were further equilibrated by stirring for an additional 15 hours or more at room temperature. The pH of the all sample solutions was measured again to confirm the final desired pH. These formulations were used directly as sample donor solutions for the cornea permeation study.

[10] = tested on: isolated rabbit cornea; settings: pH 7.4
Excerpt: The permeability coefficient is inversely proportional to the initial concentration of the drug in the donor solution.

| Compound | solubility at 30 min [1] [mg/mL] | solubility [2] | pKa (amine group) [3] | pKa (sulfonamide group) [3] | solubility [4] | pH-solubility profile (aqueous solubility vs pH) [5] | solubility thermodynamic at 30 min ([6]; aqueous buffer, thermodynamic from solid, pH 7, 10 mM phosphate buffer, no additives) [mg/mL] | diffusion coefficient on addition of HP and Polysorbate 80 [7] | enhancement of corneal permeation rate [7] | diffusion coefficient on addition of HP [8] | diffusion coefficient on addition of HP [9] | cumulative amount permeated compared to the market product [10] | solubility of Timolol with the addition of additives ([6]; pH 5.65 and pH 7, samples containing 0.5% w/v Timolol) | cumulative amount permeated relative to control formulation at similar pH with no additives ([9]; male, New Zealand, rabbit, 180 min, pH 7.4) [times] | cumulative amount permeated relative to the market product ([10]; male, New Zealand, rabbit, 180 min) |
| --- | --- | --- | --- | --- | --- | --- | --- | --- | --- | --- | --- | --- | --- | --- | --- |
| CCN[C@H]1CN(CCCOC)S(=O)(=O)c2sc(S(N)(=O)=O)cc21 [Brinzolamide] | ~11 (≈ 28.7 mM) | about 1 % (w/v) | 5.9 | 8.4 | about 2 % (w/v) |  |  |  |  |  |  |  |  |  |  |
| CCN[C@H]1C[C@H](C)S(=O)(=O)c2sc(S(N)(=O)=O)cc21 [Dorzolamide] |  |  | 6.35 | 8.5 |  | reaches a bottom at pH 7 | < 5 | did not change significantly | 25-30% | did not change significantly | did not change significantly | almost comparable |  |  |  |
| CC(C)(C)NC[C@H](O)COc1nsnc1N1CCOCC1 [Timolol] |  |  |  |  |  |  |  | did not change significantly | 25-30% | did not change significantly | did not change significantly |  | did not change | ~2 | more than 2 times |
